# Laboratory results taken from patent publication US20220142209A1, “METHODS AND COMPOSITIONS FOR IMPROVING THE TASTE OF DIET COLA SODAS AND OTHER BEVERAGES” (priority 2019, published 2022).
# Tests used:
# [1] = Informal taste test of additives mixed into DIET COKE; assay type: in vivo, people
# Text: To provide enabling context for some of the embodiments disclosed herein, simple formulations are described here (with more enablement in the Exemplary Embodiments below). Pour into a cup about 7.5 ounces of a DIET COKE® that includes just aspartame. Mix in about one to two teaspoons of ENACO ERC-A20 decocainized liquid coca leaf extract, both liquids at room temperature. […] Adding a bag of sugar (5 grams) results in an even more pleasant taste while providing a cola soda with 80% less sugar. Using glucose instead of sugar (sucrose) produce a fructose-free, low-sugar, cola soda.
# (§1) Taste and aroma are not separate sensory experiences. For example, when many people are afflicted with the common cold, and have stuffy noses, they can lose some or all of the taste of foods. This is attributed to the odor sensors in the nose being blocked. Also, when many people eat foods, they can have a time dependent sensory experience, as the (chewed) food travels to the back of the mouth and then some of the aromas enter the back of the nasal cavity, due to retronasal smell (versus orthonasal smell due to aromas entering the front of the nasal cavity, for example, when you sniff a rose). Thus, in many of the embodiments disclosed herein, the term “taste and/or aroma” is used. Also, the Exemplary Embodiments that follows, statements in changes in taste and/or aroma are based on the opinions of a few people. Not all people drinking the embodiments disclosed herein will experience the same degree of improvement in taste and/or aroma.
# For the exemplary embodiments that follow, the examples are performed with all liquids at room temperature. Sodas typically taste more pleasant at lower temperatures (sodas retain carbonation better at lower temperatures, which creates a better taste for many people). Any improvements in taste and/or aroma resulting from any of the following embodiments at room temperature are similar, if not more pleasant, at lower temperatures down to freezing. Tastes and/or aromas can also vary due to the use of soda container: glass, plastic, metal or paper. There are many who think that cola sodas taste best when consumed from glass bottles. For many of the exemplary embodiments disclosed herein, Bodum PAVINA® Coffee Mugs, double-wall insulated glass mugs, 8-ounce size, are used.
# One embodiment of an improved cola beverage product is understood with the following exemplary method and resulting exemplary article of manufacture. Pour about 7.5 ounces of DIET COKE® (about 220 grams—about 222 milliliters) into a container such as a cup. Mix in about one half teaspoon to two teaspoons (about 2.5 to 10 grams—about 2.5 to 10 milliliters) of coca leaf extract, for example, the ERC-A20 liquid coca extract available from ENACO (Lima, Peru) or its equivalents. […] Any coca leaf extract with similar chemical components (see FIG. 4 and FIG. 11, for example) to ERC-A20 (the version of the extract circa 2018/2019) can be used, and the extracts can be added to other diet sodas such as COKE ZERO® and COKE ZERO SUGAR®.
# [2] = Taste test of ethyl benzoate in hot unsweetened cacao drink; assay type: in vivo, people; conditions: 5 ml of 24 micrograms per milliliter solution in one cup hot water with about two tablespoons unsweetened cacao powder
# Text: as §1
# Some of the unpleasant taste of unsweetened cacao can be removed by using ethyl benzoate. In one exemplary embodiment to improve the taste of any brand of unsweetened cacao and/or chocolate made therefrom, prepare one cup of hot water and add about two tablespoons of unsweetened HERSHEY® cacao powder. Mix in 5 milliliters (one teaspoon) of a liquid (e.g., water) solution that has, for example, 24 micrograms per milliliters of ethyl benzoate. […]
# [3] = adults and children; cited from earlier work
smiles,measurement,setting,value
CC1=CCC(C(C)(C)O)CC1 (stereo not drawn) [alpha-terpineol],experience of drinking modified DIET COKE,[1]; about one teaspoon of 48 micrograms/milliliter water solution in 220 ml DIET COKE,more pleasant
CCOC(=O)c1ccccc1 [ethyl benzoate],taste and/or aroma versus untreated DIET COKE,[1]; about 5 ml (one teaspoon) of about 24 micrograms per milliliter solution in 7.5 ounces DIET COKE,more pleasant
same,taste of resulting beverage,"[1]; solution of just ethyl benzoate instead of liquid coca leaf extract, about 7.5 ounces DIET COKE","improvement in taste, but lesser of an improvement than with the leaf extract"
same,pleasantness of resulting beverage,[2],more pleasant
CC1=CCC(C(C)C)=CC1 [gamma-terpinene],taste of resulting DIET COKE,"[1]; one half teaspoon, 40 micrograms/milliliter, in 220 ml DIET COKE","while more pleasant as seen with adding alpha-terpineol, also has less of a “coca cola” taste"
C=CC(C)(O)CCC=C(C)C (stereo not shown) [linalool],change in unpleasantness,"[1]; one teaspoon, 40 micrograms per milliliter, in 220 ml Diet Coke",little-to-no change
COC(=O)c1ccccc1 [methyl benzoate],DIET COKE taste,[1]; about 5 ml of solution of about 24 micrograms per milliliter,taste similar to that of using ethyl benzoate
O=C([O-])c1ccccc1.[Na+] [sodium benzoate],Coca-Cola taste,[1]; 1/32nd teaspoon (230 milligrams) in 220 ml DIET COKE,No improvement
OC[C@@H](O)[C@H](O)[C@@H](O)CO [xylitol],taste of resulting beverage,"[1]; one teaspoon powdered xylitol dissolved in 1.5 teaspoons ERC-A20, added to 220 ml DIET COKE",An improvement in taste is experienced
same,safe amounts,[3],less than 20 grams a day
